According to patent CN104710358A, “喹啉-4-甲酰胺衍生物及其医药用途” (Chengdu Military General Hospital of PLA, priority 2015, dated 2015):

System: PTSD rat conditioned fear response [束缚应激致PTSD大鼠条件恐惧反应]
Test: Conditioned fear response in restraint-stress-induced PTSD rats (freezing after foot shock)
Type: in vivo
Settings: dose not given, Fig. 1

Compound: Cc1ccc(Cl)cc1N1CCN(CCCNC(=O)c2ccnc3ccccc23)CC1 [化合物1, N-{3-[4-(5-氯-2-甲基苯基)哌嗪基]丙基}-喹啉-4-甲酰胺, 盐酸乙醚成盐]
- percentage of freezing time (PTSD group, before versus after drug administration, 5 min test in shock box (CS+) without current): 显著降低
- inhibition of PTSD conditioned fear response (PTSD rats): 显著抑制PTSD条件性恐惧反应
- anxiety level of PTSD rats (PTSD rats, inferred from the conditioned fear test): 降低PTSD大鼠的焦虑水平
